Measured values reported in patent US8623845B1, “Pharmaceutical composition for preventing or treating Diabetes mellitus comprising bisphophonates” (Metacine, Inc., priority 2012, dated 2014).

How the values were obtained:
PTP-1B = biological target: T1, PTP-1B (Homo sapiens, UniProt P18031); assay: Inhibition of binding PTP-1B with IR (protein chip, anti-IR phosphorylation antibody); assay type: biochemical; settings: mean±SD, n=6
T1 sequence (P18031 1-435): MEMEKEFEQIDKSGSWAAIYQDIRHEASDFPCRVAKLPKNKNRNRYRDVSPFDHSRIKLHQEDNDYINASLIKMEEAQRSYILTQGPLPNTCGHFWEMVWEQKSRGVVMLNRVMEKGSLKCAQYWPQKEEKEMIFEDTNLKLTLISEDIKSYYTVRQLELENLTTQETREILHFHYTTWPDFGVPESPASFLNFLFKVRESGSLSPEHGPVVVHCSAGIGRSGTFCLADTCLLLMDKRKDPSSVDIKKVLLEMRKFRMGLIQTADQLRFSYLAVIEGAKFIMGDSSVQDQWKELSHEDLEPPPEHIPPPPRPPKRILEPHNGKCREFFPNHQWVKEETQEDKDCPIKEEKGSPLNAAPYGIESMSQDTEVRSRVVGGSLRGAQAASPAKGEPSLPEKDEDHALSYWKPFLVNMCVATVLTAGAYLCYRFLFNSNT
Protocol: IR molecules stood for 1 hour at 30° C. to induce phosphorylation, and each 1 μl of IR molecules were fixed with protein chips(PeproTech) at 4° C. The protein chips were washed with washing buffer for 10 minutes, and blocked with blocking buffer(3% BSA in PBS, pH 7.4) at room temperature for 1 hour followed by washing with washing buffer. Each sample was as follow:
0. Blank control(C), 0.5 μl PEG (10%, polyethylene glycol)+0.5 μl PTP-1B buffer;
1. Negative control(N), 0.5 μl PEG (10%)+0.5 μl PTP-1B;
2. Positive control(P), 0.5 μl Na3VO4(sodium orthovanadate; 1 mM, pH 10)+0.5 μl PTP-1B;
3. Experimental group(ZA), 0.5 μl ZA (5 μM)+0.5 μl PTP-1B
The protein chips were washed for 10 minutes, and each was treated with 1 μl of anti-IR phosphorylation antibodies diluted by dilution buffer in 1/100 followed by incubating for 1 hour at 30° C. And then, it was washed with washing buffer for 10 minutes, and each was treated with […] of Cy5-fluorescent coupled rabbit anti-IgG antibodies diluted by dilution buffer in 1/100 followed by incubating for 1 hour at 30° C. They were washed for 10 minutes, scanned by microarray scanner system to analyze to GraphPad Prism 4 software.
The results are presented as the mean±SD(%). Statistical analysis was performed using Student's t-test, and P<0.05 was considered as a significance (n=6).

Rat pancreatic islets = assay: Insulin secretion level by hyperglycemia stimulation in primary pancreatic islets; assay type: cell-based, Sprague Dawley rats; settings: 5 μM ZA for 3 days, mean±SD of five experiments
Protocol: Rat pancreatic islets were isolated from Sprague Dawley rats (200˜230 g) by digesting the pancreatic duct with collagenase P (1 mg/ml in PBS). After digestion, the islets were separated with Histopaque-1077 (Sigma, St. Louis, Mo.). The primary islets were cultured in RPMI 1640 medium containing 10% fetal bovine serum (FBS), penicillin (100 IU/ml) and streptomycin (100 g/ml). Equal number of primary islet clusters was transferred into micro-centrifuge tube with 1 ml of 10% RPMI 1640, and incubated under normal (5.5 mM glucose) and glucotoxic conditions with or without Zoledronic acid (5 μM) for 3 days. Exposure to glucotoxic conditions was followed by treating with 0.6 mM free fatty acid (FFA; palmitate/oleate, 2:1) and 25 mM glucose in RPMI 1640 with 10% FBS. FFA were complexed with 5% fatty acid-free BSA in PBS. Cultured islets were washed in Krebs-Ringer-bicarbonate (KRB) buffer (130 mM NaCl, 3.6 mM KCl, 1.5 mM CaCl2, 0.5 mM MgSO4, 0.5 mM KH2PO4. 2.0 mM NaHCO2 and 10 mM HEPES) and incubated in KRB buffer for 1 hour followed by further incubation in KRB buffer containing 5.5 mM glucose for 1 hour. Samples were centrifuged at 12,000 g for 1 min and the supernatant was collected for measurement. […] Insulin concentrations from two supernatants removed at two different conditions were measured with a RIA kit (Linco) The results are presented as the mean±SD of five independent experiments. […]

| Compound | inhibition effect of binding PTP-1B with IR (PTP-1B; positive control, Na3VO4 1 mM, pH 10) [%] | insulin secretion level (Rat pancreatic islets; diabetes mellitus condition (25 mM glucose, glucotoxic), untreated reduced to 52±19% compared to normal condition) [%] | insulin secretion level (Rat pancreatic islets; normal condition (5.5 mM glucose), untreated = 100±17%) [%] | inhibition at 5 µM (PTP-1B; ZA 5 μM, read-out: inhibition effect of binding PTP-1B with IR) [%] |
| --- | --- | --- | --- | --- |
| [Na+].[Na+].[Na+].[O]=[V]([O-])([O-])[O-] [Na3VO4, sodium orthovanadate] | 87±4 |  |  |  |
| O=P(O)(O)C(O)(Cn1ccnc1)P(=O)(O)O [ZA, [1-hydroxy-2-(1H-imidazol-1-yl)ethane-1,1-diyl]bis(phosphonic acid)] |  | 72±34 | 82±43 | 89 ± 21 |
